Patent US3941842A, “P,P'-Disubstituted α-trichloromethylbenzylanilines” (priority 1972, dated 1976)
Values joined by “and” are separate entries in the source; they are usually repeats but may differ in a detail not shown here. Equal entries are not always repeated.

Tests used:
[1] = Model ecosystem: distribution, ecological magnification and Biodegradability Index; conditions: 33 days, 5.0 mg 3H-ethoxyaniline to Sorghum
Source text: After the amounts of the various metabolites have been calculated and a determination is made as to which of the metabolites are to be designated as "polar" and which are to be designated as "non-polar", a Biodegradability Index (amount of polar metabolites/amount of nonpolar metabolites) may be calculated. Remembering that nonpolar compounds, such as DDT are readily soluble in the fatty tissues, but are not readily soluble in water based solutions, and that the cell fluid is essentially a water based solution, the lower the Biodegradability Index, the lower the amount of biodegradability of the compound. The higher the amount of polarity, the greater the likelihood that the polar compound will dissolve in water, a very polar compound, and be eliminated from the cell.
The environmental fate of any new pesticide is a factor of paramount importance in determining how and where it might be used. The behavior of ^3 H-α-trichloromethyl-p-ethoxybenzyl-p-ethoxyaniline has been studied by the model ecosystem technique following application of 5.0 mg. of labeled compound to Sorghum plants. A summary of
metabolites from the organisms in the model ecosystem after 33 days were
identified by cochromatography with standards of known constitution, by
appropriate chromogenic reagents, and by high-resolution mass
spectrometry. The data of Table IV indicate the O-dealkylation of
Food Chem. 1 (1972). Ethoxychlor was found in the snail to 58.6 ppm and in the fish to 0.92 ppm, along with its ethylene and the mono- and bis-phenols formed by O-dealkylation. The ecological magnification (E.M.) of ethoxychlor, defined as the ratio of the parent material in the fish to the concentration in the water, was 1500-fold as compared with an E.M. of only 0.7-fold for the ethoxyaniline.
Comparing the Biodegradability Indices (B.I.=total recovered polar metabolites/total recovered nonpolar metabolites) the values are 0.44 for ethoxychlor and 2.0 for ethoxyaniline.

Phormia regina = test: whole plant or invertebrate; conditions: for LD50: Phormia regina, read-out: Topical LD50, Phormia regina, Alone; for LD50 / Topical LD50, Phormia regina, with pb: topical; for Topical LD50, Phormia regina, with pb: synergized with piperonyl butoxide; for SR, Phormia regina: synergistic ratio: LD50 alone/LD50 synergized with piperonyl butoxide
Procedure: The compounds of the present invention were tested for insecticidal activity by standard methods, and compared with the insecticidal activities of DDT and symmetrical analogs of DDT, such methoxychlor. Toxicological methods for the determination of the topical LD50 values to adult female SNAIDM and RSP houseflies, Musca domestica L. and to Phormia regina, and LC50 values to Culex pipiens quinquefasciatus Say, and Anopheles albimanus Weid mosquitoes were described by Metcalf el al., 44 Bull. World Health Org. […] The methods for evaluation of metabolism by mouse liver homogenate and by female RSP housefly and salt-marsh caterpillar larvae Estigmene acrea Drury, were described by Kapoor et al., 18 J. Agr. […] The techniques for model eocsystem evluation were described by Metcalf et al., 5 J. Environ. Sci. Tech.
(§1) Since piperonyl butoxide serves to block the action of MFO, the synergized LD50 values express the intrinsic toxicity of the compounds. With the detoxifying action of MFO enzymes blocked, the intrinsic toxicity of the compounds can thus be measured.

Musca domestica Snaidm = test: Topical LD50 to adult female SNAIDM houseflies; conditions: for LD50: Musca domestica, read-out: Topical LD50, Musca domestica Snaidm, Alone; for LD50 / Topical LD50, Musca domestica Snaidm, with pb: topical; for Topical LD50, Musca domestica Snaidm, with pb: SNAIDM strain, synergized with piperonyl butoxide; for SR, Musca domestica Snaidm: synergistic ratio: LD50 alone/LD50 synergized with piperonyl butoxide
Procedure: (§2) The compounds of the present invention were tested for insecticidal activity by standard methods, and compared with the insecticidal activities of DDT and symmetrical analogs of DDT, such methoxychlor. Toxicological methods for the determination of the topical LD50 values to adult female SNAIDM and RSP houseflies, Musca domestica L. and to Phormia regina, and LC50 values to Culex pipiens quinquefasciatus Say, and Anopheles albimanus Weid mosquitoes were described by Metcalf el al., 44 Bull. World Health Org. 363 (1971). The methods for evaluation of metabolism by mouse liver homogenate and by female RSP housefly and salt-marsh caterpillar larvae Estigmene acrea Drury, were described by Kapoor et al., 18 J. Agr. Food Chem. 1145 (1970). The techniques for model eocsystem evluation were described by Metcalf et al., 5 J. Environ. Sci. Tech. 709 (1971).
as §1

Culex fatigans larvae = test: LC50 to Culex fatigans larvae; assay type: in vivo, Culex pipiens quinquefasciatus Say
Source text: (§3) World Health Org. 363 (1971). […] Food Chem. 1145 (1970). […] Sci. Tech. 709 (1971). The results are detailed in Table II. ##SPC1##

[2] = system: Anopheles albimanus larvae; test: LC50 to Anopheles albimanus larvae; assay type: in vivo, Anopheles albimanus Weid
Source text: as §3

Musca domestica Rsp = test: Topical LD50 to adult female RSP houseflies; conditions: for LD50: Musca domestica, read-out: Topical LD50, Musca domestica Rsp, Alone; for LD50 / Topical LD50, Musca domestica Rsp, with pb: topical; for Topical LD50, Musca domestica Rsp, with pb: RSP strain, synergized with piperonyl butoxide; for SR, Musca domestica Rsp: synergistic ratio: LD50 alone/LD50 synergized with piperonyl butoxide
Procedure: as §2, §1

[3] = system: Musca domestica (SNAIDM and RSP strains), Phormia regina, Culex fatigans and Anopheles albimanus; test: Insecticidal activity over the test insects (Table II, summarised in words); assay type: in vivo; conditions: overall, test insects of Table II
Procedure: as §2, §1

Row | SMILES | Concentration of ethoxyaniline equivalents in Culex (mosquito) [1] | Concentration of ethoxyaniline equivalents in Gambusia (fish) [1] | Concentration of ethoxyaniline equivalents in H2O [1] | Concentration of ethoxyaniline equivalents in Oedogonium (algae) [1] | Concentration of ethoxyaniline equivalents in Physa (snail) [1] | LD50 (Phormia regina) | Topical LD50, Phormia regina, with pb (Phormia regina) | synergism in Phormia (in words) (Phormia regina; with piperonyl butoxide) | LD50 (Musca domestica Snaidm) | Topical LD50, Musca domestica Snaidm, with pb (Musca domestica Snaidm) | SR, Musca domestica Snaidm (Musca domestica Snaidm) | LC50 Culex fatigans larvae (Culex fatigans larvae) | LC50 Anopheles albimanus larvae [2] | LD50 (Musca domestica Rsp) | Topical LD50, Musca domestica Rsp, with pb (Musca domestica Rsp) | SR, Musca domestica Rsp (Musca domestica Rsp) | insecticidal effectiveness / toxicity (in words) [3] | SR, Phormia regina (Phormia regina)
1 | CCOc1ccc(C(=O)O)cc1 [C2 H5 OC6 H4 C(O)OH, p-ethoxybenzoic acid] | 0.06 ppm | 0.03 ppm | 0.123 ppm | 0.38 ppm | 1.800 ppm | – | – | – | – | – | – | – | – | – | – | – | – | –
2 | CCOc1ccc(NC(c2ccc(O)cc2)C(Cl)(Cl)Cl)cc1 (stereo not drawn) [C2 H5 OC6 H4 NHCH(CCl3)C6 H4 OH, α-trichloromethyl-p-hydroxybenzyl-p-ethoxyaniline] | 0.13 ppm | 0.08 ppm | 0.031 ppm | 0.43 ppm | 2.02 ppm | – | – | – | – | – | – | – | – | – | – | – | – | –
3 | COc1ccc(NC(c2ccc(OC)cc2)C(Cl)(Cl)Cl)cc1 (stereo not shown) [Compound II] | – | – | – | – | – | 118 mg/kg | 35.0 μg per g | substantially synergized in Phormia | > 500 mg/kg | 5.5 μg per g | 100 and > 100 | > 1.0 ppm | 0.64 ppm | 500 mg/kg | 13.5 μg per g | 37 and > 37 | very low toxicity | –
4 | CCOc1ccc(NC(c2ccc3c(c2)OCO3)C(Cl)(Cl)Cl)cc1 (stereo not shown) [Compound XVII] | – | – | – | – | – | > 250 mg/kg | 32.5 μg per g | – | 19.5 mg/kg | 3.8 μg per g | 5.1 | 0.23 ppm | 0.25 ppm | 35.5 mg/kg | 11.0 μg per g | 3.2 | – | > 7.7
5 | Cc1ccc(NC(c2ccc(Cl)cc2)C(Cl)(Cl)Cl)cc1 (stereo not shown) [Compound XVI] | – | – | – | – | – | 36.2 mg/kg | 25 μg per g | – | 65 mg/kg | 16 μg per g | 4.1 | 0.18 ppm | 0.14 ppm | 125 mg/kg | 30 μg per g | 4.2 | – | 1.45
6 | Cc1ccc(C(Nc2ccc(Cl)cc2)C(Cl)(Cl)Cl)cc1 (stereo not shown) [Compound XV] | – | – | – | – | – | 72.5 mg/kg | 62.5 μg per g | – | 90 mg/kg | 21.0 μg per g | 4.3 | 0.066 ppm | 0.13 ppm | ~500 mg/kg | 36.0 μg per g | 14 | – | 1.1
